Where two headings read alike, the source gives them in different places.
Assays:
[1] = tested on: MDA-MB-231; assay: MTS cell viability assay, 48 h; assay type: cell-based, human; conditions: MDA-MB-231, 48 h
Procedure: […] […] This compound carries a primary amino group at the sn-3 position of the glycerolipid and L-rhamno sugar at the sn-2 position via an α-rhamnosidic linkage.
(§1) The cell lines were cultured from frozen stocks originally obtained from ATCC (Manassas, VA, USA). MDA-MB-231, JIMT-1, DU145, MDA-MB-468, Hs578t and MDA-MB-453 were grown in DMEM medium supplemented with 10% FBS. BT-474 cells were grown in DMEM/F12 medium supplemented with 10% FBS. MiaPaCa2 was cultured in DMEM supplemented with 10% FBS and 2.5% horse serum. All the media contained penicillin/streptomycin. U-251 and U-87 in Eagle MEM supplemented by 10% FBS, 1% Non-essential amino acids, 1 mM sodium pyruvate and 2 mM glutamine. BT-549 was cultured in RPMI 1640 medium supplemented with 10% FBS.
The effects of the GAELs on the viability of the epithelial cancer cell lines were determined as previously described. Briefly, equal numbers of the cells were dispersed into 96-well plates. […] MTS reagent [3-(4,5-dimethylthiazol-2-yl)-5-(3-carboxymethoxyphenyl)-2-(4-sulfophenyl)-2H-tetrazolium, inner salt; Promega, Madison, WI, USA] (20% v/v) was subsequently added and the plates were incubated for 1–4 h in a CO2 incubator followed by measurement of the medium at OD490 with a plate reader (Molecular Devices).

[2] = tested on: JIMT-1; assay: MTS cell viability assay, 48 h; assay type: cell-based, human; conditions: JIMT-1, 48 h
Procedure: (§2) The cells were incubated with increasing concentrations of the compounds (0–30 µM) for 48 h followed by assessment of cell viability using the MTS assay. […] This compound carries a primary amino group at the sn-3 position of the glycerolipid and L-rhamno sugar at the sn-2 position via an α-rhamnosidic linkage.
as §1
(§3) The effects of the GAELs on the viability of the epithelial cancer cell lines were determined as previously described. Briefly, equal numbers of the cells were dispersed into 96-well plates. After 24 h, the cells were incubated with the compounds (0–30 µM) for 48 h. MTS reagent [3-(4,5-dimethylthiazol-2-yl)-5-(3-carboxymethoxyphenyl)-2-(4-sulfophenyl)-2H-tetrazolium, inner salt; Promega, Madison, WI, USA] (20% v/v) was subsequently added and the plates were incubated for 1–4 h in a CO2 incubator followed by measurement of the medium at OD490 with a plate reader (Molecular Devices). Wells with media but no cells were treated in similar fashion and the values utilized as blank.

[3] = tested on: DU-145; assay: MTS cell viability assay, 48 h; assay type: cell-based, human; conditions: DU-145, 48 h
Procedure: as §2, §1
as §3, with “Devices).” for “Devices). Wells with media but no cells were treated in similar fashion and the values utilized as blank.”

[4] = tested on: MiaPaCa2; assay: MTS cell viability assay, 48 h; assay type: cell-based, human
Procedure: as §2, §1
as §3, with “Devices).” for “Devices). Wells with media but no cells were treated in similar fashion and the values utilized as blank.”

[5] = tested on: PC-3; assay: MTS cell viability assay, 48 h; assay type: cell-based, human; conditions: PC-3, 48 h
Procedure: as §2, §3

[6] = tested on: human epithelial cancer cell lines: breast (MDA-MB-231, JIMT-1), pancreas (MiaPaCa2) and prostate (DU-145, PC-3); assay: MTS cell viability assay, 48 h, across the panel of cell lines; assay type: cell-based; conditions: for CC50: read-out: CC50 values across the cell lines; for Cytotoxicity against the cancer cells: highest dose tested 30 µM, data not shown
Procedure: as §2, §1, §3

[7] = tested on: MDA-MB-231; parameters: method as in PMID 28177244; conditions: cited from earlier work
[8] = tested on: JIMT-1; parameters: method as in PMID 28177244; conditions: cited from earlier work
[9] = tested on: MiaPaCa2; parameters: method as in PMID 28177244; conditions: cited from earlier work
[10] = tested on: DU-145; parameters: method as in PMID 28177244; conditions: cited from earlier work
[11] = tested on: PC-3; parameters: method as in PMID 28177244; conditions: cited from earlier work
[12] = tested on: human epithelial cancer cell lines: breast (MDA-MB-231, JIMT-1), pancreas (MiaPaCa2) and prostate (DU-145, PC-3); parameters: method as in PMID 28177244; conditions: range over all cell lines; read-out: CC50 values across the cell lines; cited from earlier work
[13] = tested on: DU-145; assay: Cell membrane integrity, ethidium homodimer-1 (EthD-1) staining; assay type: cell-based; conditions: DU-145, 0.01%, 10 min
Procedure: (§4) After determining that the mechanism of cell death of compound 3 is independent of caspases-mediated apoptosis, we evaluated if cell death was due to membrane disruption or lysis using the cell impermeant ethidium homodimer-1 (EthD-1) dye that emits red fluorescence upon binding to DNA [13, 14]. DU-145 and JIMT-1 were treated with compound 3 at 10 and 15 µM, respectively. After 4–6 h, the cells were treated with EthD-1 dye and monitored under fluorescence microscopy.
(§5) Equal numbers of JIMT-1 and DU145 cells were dispersed into 96-well plates. After 24 h the cells were incubated with varying concentration of compounds 3 or 4 (4–6 µM) for 5–6 h. Subsequently, 2 µM of the cell membrane impermeant dye, ethidium homodimer-1 (EthD-1 (Molecular Probes, Eugene, OR, USA) that emits red fluorescence upon binding to DNA was added and the cells analysed by fluorescence microscopy. EthD-1 staining was compared to negative controls with no treatment and positive control treated with 0.01% Triton X-100 for 10 min.
(§6) Figure 5 Evaluation of effect of compound 3 on cell membrane of DU-145 and JIMT-1 cell lines using cell impermeant ethidium homodimer-1 (EthD-1) dye that emits red fluorescence upon binding to DNA.

[14] = tested on: JIMT-1; assay: as above; assay type: cell-based; conditions: JIMT-1, 0.01%, 10 min
Procedure: as §4, §5, §6

[15] = Homo sapiens, MTS, read-out: CC50
[16] = Homo sapiens, MIA PaCa-2, MiaPaCa2, 48 h, MTS, read-out: CC50
[17] = Homo sapiens, 48 h, range or bound over all cell lines, 48 h, MTS

## 1-Hexadecyl-2R-methoxyl-3-O-α-L-rhamnopyranosyl-sn-glycerol [Compound 2]
[1]; MTS, concentration decreasing cell viability by 50% relative to untreated control, read-out: CC50
  CC50: 26 µM
[2]; MTS, read-out: CC50
  CC50: 28 µM
[3]; MTS, read-out: CC50
  CC50: 25 µM
[4]; MiaPaCa2, 48 h, MTS, read-out: CC50
  CC50: > 30 µM
[5]; MTS, read-out: CC50
  CC50: 25 µM
[6]; range or bound over all cell lines, 48 h, MTS
  CC50: ≥ 21.5 µM

## O=C(O)CCCc1ccc(N(CCCl)CCCl)cc1 [Chlorambucil, reference compound]
[1]; Homo sapiens
  CC50: > 150 µM
[2]; Homo sapiens
  CC50: > 150 µM
[3]; Homo sapiens
  CC50: > 150 µM
[4]; Homo sapiens, MIA PaCa-2, 48 h
  CC50: > 150 µM
[5]; Homo sapiens
  CC50: > 150 µM
[6]; Homo sapiens, 48 h
  CC50: > 150 µM

## CCCCCCCCCCCCCCCCOCC(CO[C@@H]1O[C@@H](CO)[C@H](O)[C@@H](O)[C@@H]1N)OC (stereo partly drawn) [Compound 1]
[7]
  CC50: 11 µM
[8]
  CC50: 6.5 µM
[9]
  CC50: 7.5 µM
[10]
  CC50: 12.5 µM
[11]
  CC50: 12.5 µM
[12]
  CC50: 6.5 to 12 µM

## CCCCCCCCCCCCCCCCOCC(CNC(=O)CCc1ccc(O)cc1)O[C@@H]1O[C@@H](C)[C@H](O)[C@@H](O)[C@H]1O (stereo partly drawn) [Compound 4]
[1]; Homo sapiens, MTS, concentration decreasing cell viability by 50% relative to untreated control, read-out: CC50
  CC50: 23 µM
[2]; [15]
  CC50: 25 µM
[3]; [15]
  CC50: 30 µM
[4]; [16]
  CC50: > 30 µM
[5]; [15]
  CC50: 21.5 µM
[6]; [17]
  CC50: ≥ 21.5 µM

## CCCCCCCCCCCCCCCCOCC(CN)OC1OC(CO)C(O)C(O)C1O [Compound 5, 3-Amino-1-hexadecyloxyl-2R-O-β-L-glucopyranosyl-sn-glycerol]
[2]; [15]
  CC50: > 30 µM
[3]; [15]
  CC50: > 30 µM
[4]; [16]
  CC50: > 30 µM
[5]; [15]
  CC50: > 30 µM
[6]; [17]
  CC50: > 30 µM
[6]; depending on the cell line, up to 30 µM, 48 h
  Loss of viability: 0–35%

## CCCCCCCCCCCCCCCCOCC(CN)OC1OC(CN)C(O)C(O)C1O [Compound 6, 3-Amino-1-hexadecyloxyl-2R-(6′-amino-6′deoxy-O-α-L-mannopyranosyl)-sn-glycerol]
[2]; [15]
  CC50: 12.5 µM
[3]; [15]
  CC50: 17.5 µM
[4]; [16]
  CC50: 19 µM
[5]; [15]
  CC50: 25 µM
[6]; CC50 compared with 3
  Times less active than glycolipid 3: 2- to 4
[6]; [17]
  CC50: 12.5 to 25 µM

## CCCCCCCCCCCCCCCCOCC(CO[C@H]1O[C@H](CO)[C@@H](O)[C@H](O)[C@H]1N)OC (stereo partly drawn) [Compound 7]
[8]
  CC50: 9 µM
[9]
  CC50: 9 µM
[10]
  CC50: 9 µM
[11]
  CC50: 13.5 µM

## OC[C@@H]1OC(O)[C@@H](O)[C@H](O)[C@H]1O (stereo partly drawn) [L-glucose]
[6]
  Cytotoxicity against the cancer cells: not cytotoxic

## OC[C@@H]1OC(O)[C@H](O)[C@H](O)[C@H]1O (stereo partly drawn) [L-mannose]
[6]
  Cytotoxicity against the cancer cells: not cytotoxic

## C[C@H](O)[C@H](O)[C@@H](O)[C@@H](O)C=O [rhamnose, L-Rhamnose]
[6]
  Cytotoxicity against the cancer cells: not cytotoxic

## Triton X-100 [reference compound]
[13]
  EthD-1 staining, positive control: stained bright red
[14]
  EthD-1 staining, positive control: stained bright red

Reference: article PMC7037447, “Syntheses of L-Rhamnose-Linked Amino Glycerolipids and Their Cytotoxic Activities against Human Cancer Cells” (Molecules, 2020)
